US5872015A, “Molecular diversity screening method” (Board of Trustees of the University of Illinois, priority 1996, dated 1999)

Legend:
[1] = target: T1, Calf intestinal adenosine deaminase (Bos taurus, UniProt P56658)
T1 sequence (P56658 1-363): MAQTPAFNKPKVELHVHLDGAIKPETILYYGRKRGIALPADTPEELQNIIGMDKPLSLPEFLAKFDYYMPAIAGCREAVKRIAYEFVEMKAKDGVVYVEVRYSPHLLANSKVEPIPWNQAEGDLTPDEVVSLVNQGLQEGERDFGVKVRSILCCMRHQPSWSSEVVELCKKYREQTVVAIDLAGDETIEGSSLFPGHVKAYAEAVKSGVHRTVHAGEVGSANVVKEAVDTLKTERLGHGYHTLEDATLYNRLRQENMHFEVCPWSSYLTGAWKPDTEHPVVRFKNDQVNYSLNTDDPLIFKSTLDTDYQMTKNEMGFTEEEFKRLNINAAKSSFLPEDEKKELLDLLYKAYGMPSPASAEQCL
Procedure: Calf intestinal adenosine deaminase (or another type of adenosine deaminase) is loaded into the molecular diversity screening device (equipped with a 10,000 molecular weight cutoff membrane) to a concentration of approximately 10 nM. A library of 20 adenosine analogs was prepared including the natural substrate for adenosine deaminase, adenosine (See list of compounds in Table 1).
Next, the adenosine analog library was mixed with adenosine deaminase (in a 1:1 molar ratio) in 33 mM ammonium acetate buffer at pH 7.4, and an aliquot was injected into the molecular diversity screening device to achieve a concentration of adenosine deaminase of approximately 10 nM. After flushing the binding chamber with water at 100 μL/min for 12 min, to wash out library compounds with low affinity for adenosine deaminase, methanol/water (50:50) was pumped through the chamber at 50 μL/min. The latter procedure should perturb binding of any remaining compounds bound to the adenosine deaminase and release them into the detector.

[2] = target: T1, Calf intestinal adenosine deaminase; experiment: Selective identification of adenosine deaminase binders from a synthetic library of EHNA-type analogs (ultrafiltration, electrospray MS); format: binding; conditions: for detected eluting from the device in the recovery phase: scan mode, positive ion electrospray MS, ADA 7.35 μM, approximately 10 nM each analog, pH 7.4, methanol/water 90:10; for presence of ion in the recovery phase in the presence of ADA / binding to ADA in the presence of a five-fold excess of EHNA: single ion monitoring mode; for presence of ion in the recovery phase in the presence of ADA: with ADA (FIG. 11B); for binding to ADA in the presence of a five-fold excess of EHNA: with ADA and five-fold excess of authentic EHNA (FIG. 11C)
[3] = target: adenosine deaminase (ADA); conditions: cited from earlier work
[4] = tested on: adenosine deaminase (ADA); conditions: EHNA 2×10^-8 M continuous influx; ADA 10^-7 M; 33 mM ammonium acetate; release by 25 μL MeOH, three cases
Procedure: At about 10 min, 25 μL of MeOH is injected into the binding chamber resulting in an increase in EHNA--the first peak on the left. This signal is due to an enhanced sensitivity of the detector to EHNA in the presence of MeOH and/or due to release of non-specifically bound EHNA from the device and its parts. At about 40 min, the receptor ADA, in 33 mM ammonium acetate buffer, is introduced into the binding chamber until a receptor concentration of 10^-7 M is reached. […] At about 90 min, 25 μL of MeOH is again introduced to perturb binding and release of EHNA is observed. […] This process is repeated a third time at about 180 min. […] At about 230 min the ADA is removed from the binding chamber by opening the binding chamber wash port 9.

bovine serum albumin = experiment: Extraction of pentachlorophenol by bovine serum albumin in the molecular diversity screening device (pulsed ultrafiltration, electrospray MS); format: binding
Procedure: The receptor concentration is chosen to be about 100 times the smallest dissociation constant being sought. […] The binding chamber is then washed with binding buffer (i.e., 100 Mm ammonium acetate at Ph 7.4) at 100 μL/min to wash out any low molecular weight impurities. The compound, in this case pentachlorophenol (equimolar or less with respect to the serum albumin in the binding chamber) is then injected into the binding chamber, and elution of pentachlorophenol is monitored using an appropriate detector such as UV absorbance or an electrospray mass spectrometer. An example of the extraction of pentachlorophenol from a binding buffer by bovine serum albumin is shown in FIG. 7 using electrospray mass spectrometric detection.
When pentachlorophenol is injected into the binding chamber without serum albumin present, an abundant peak is detected by the mass spectrometer as pentachlorophenol flows through the device unimpeded (FIG. 7, solid curve). […] Retention of pentachlorophenol in the binding chamber corresponds to tight binding to serum albumin under the predicted concentrations.

serum albumin = conditions: albumin-pentachlorophenol; read-out: dissociation constant; cited from earlier work

detected eluting from the device in the recovery phase [2] | presence of ion in the recovery phase in the presence of ADA [2] | binding to ADA in the presence of a five-fold excess of EHNA [2] | SMILES | other results
not detected | did not appear |  | CC(C)CC(C(C)O)n1cnc2c(N)ncnc21 (centres unmarked) [isobutyl] | 
detected | present | suppressed | CCCCCCCCC(C(C)O)n1cnc2c(N)ncnc21 (centres unmarked) [nC7 H15] | 
detected | present | suppressed | CCCCCCCCCCC(C(C)O)n1cnc2c(N)ncnc21 (centres unmarked) [nC10 H21] | 

The remaining lines, values behind:

SMILES | detected eluting from the device in the recovery phase [2] | presence of ion in the recovery phase in the presence of ADA [2] | binding to ADA in the presence of a five-fold excess of EHNA [2] | other results
CCCCCC[C@H]([C@H](C)O)n1cnc2c(N)ncnc21 (relative stereo) [EHNA, erythro-9-(2-hydroxy-3-nonyl)adenine] | detected | present |  | detected eluting from the binding chamber on release with methanol/water (50:50) ([1]; ADA approximately 10 nM, 33 mM ammonium acetate pH 7.4, EHNA at 20-fold lower concentration than other compounds): detected; affinity for adenosine deaminase within the library ([1]; library of 20 adenosine analogs): highest affinity; Kd ([3]; read-out: dissociation constant, North, et al., 1979): 7 nM; Ki ([3]; read-out: inhibitor dissociation constant, potent inhibitor of adenosine deaminase, no source given): 2 nM; binding to and release from ADA [4]: released after being bound to the ADA
CC(O)C(Cc1ccccc1)n1cnc2c(N)ncnc21 (centres unmarked) [benzylic] | not detected | did not appear |  | 
Oc1c(Cl)c(Cl)c(Cl)c(Cl)c1Cl [pentachlorophenol] |  |  |  | extraction from the solution by the albumin receptor molecule (bovine serum albumin; 100 mM ammonium acetate pH 7.4, unstirred 100 μL chamber, albumin approximately 1 μM): almost completely extracted; pentachlorophenol detected by the mass spectrometer after injection with albumin loaded (bovine serum albumin; bovine serum albumin in chamber (FIG. 7, dashed curve)): only a trace; Kd (serum albumin): ~10 nM
